Test results taken from PubChem BioAssay AID1645868 (Buhrlage Lab, Dana-Farber Cancer Institute and Novartis …, 2021).
pIC50: −log10 of the molar value. Activity calls are given as the source filed them.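 Rule for the calls: active = maximal percent inhibition of the deubiquitinase OTUD3 of at least 30% across the tested doses; inactive = the rest.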

Each compound was assayed against OTU domain-containing protein 3 (Homo sapiens) (UniProt Q5T2D3) (assay: Validation of screening hits, potency titration, in vitro enzymatic, OTU domain-containing protein 3 DUB inhibitors (AID 1645868)). Settings: purified OTUD3, ubiquitin-rhodamine cleavage fluorescence, 2 h.
Sequence of OTU domain-containing protein 3 (Homo sapiens) (Q5T2D3 whole entry, looked up, the tested form may be a part): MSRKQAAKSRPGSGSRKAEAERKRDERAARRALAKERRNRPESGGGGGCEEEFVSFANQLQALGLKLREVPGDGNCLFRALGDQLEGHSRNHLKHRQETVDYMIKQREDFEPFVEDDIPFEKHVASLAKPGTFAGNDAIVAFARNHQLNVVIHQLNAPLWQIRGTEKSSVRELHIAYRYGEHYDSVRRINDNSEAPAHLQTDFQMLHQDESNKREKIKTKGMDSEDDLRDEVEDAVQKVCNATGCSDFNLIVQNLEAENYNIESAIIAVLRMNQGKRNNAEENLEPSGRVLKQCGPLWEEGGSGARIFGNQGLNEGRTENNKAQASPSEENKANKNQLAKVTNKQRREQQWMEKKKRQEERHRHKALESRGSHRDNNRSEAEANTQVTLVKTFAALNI
For `Cc1ccc2c(c1)[C@]1(C(=O)N2)[C@@H](C(=O)c2ccccc2)[C@]2(C(=O)Nc3ccccc32)[C@@H]2CCCN21`, the pIC50 was 4.60.
With `O=C(/C=C/c1ccc(F)cc1)N1CCc2ccccc2C1` the IC50 was > 50 µM (inactive).
In the case of `Oc1ccc(Br)cc1CNc1ccc(F)cc1`, the IC50 was > 50 µM (inactive).
Work on `O=C(CNc1nc(Nc2ccccc2F)nc(Nc2ccccc2F)n1)Nc1ccccc1` yielded a pIC50 of 4.38.
`Cc1ccc(CNC(=O)CCCn2c(=O)c3sccc3n(CC(=O)OCc3ccccc3)c2=O)cc1` was tested, and the pIC50 was 5.45.
`O=C1NCc2c1c1c3ccccc3[nH]c1c1[nH]c3ccccc3c21` was tested, and the IC50 was > 50 µM (inactive).
In the case of `O=C(Nc1ccccc1-c1nc2ccccc2[nH]1)c1sc2ccccc2c1Cl`, the pIC50 was 5.39.
`O=C(CCCCn1c(=O)[nH]c2ccccc2c1=O)Nc1cccc(Cl)c1` showed a pIC50 of 4.67.
With `COc1cccc(NC(=O)c2ccc(F)cc2Cl)c1` the IC50 was > 50 µM (inactive).
For `Cc1sc2nc(CN3CCCC3)nc(NCCc3ccc(Cl)cc3)c2c1C`, the IC50 was > 50 µM (inactive).
In the case of `O=C(COC(=O)c1n[nH]c2ccccc12)Nc1ccc(N2CCCCC2)cc1`, the pIC50 was 4.49.
`O=C(Nc1ccc2c(c1)OCCO2)C1CCN(C(=O)c2ccccc2)CC1` was tested, and the IC50 was > 50 µM (inactive).
In the case of `O=C(NC1CCN(c2nc(-c3cccnc3)nc3ccccc23)CC1)c1cccnc1`, the IC50 was > 50 µM (inactive).
`c1ccc2c(c1)ccc1nnc(-c3ccc4c(c3)OCO4)n12` was tested, and the IC50 was > 50 µM (inactive).
For `COCCNC(=O)c1cc(-c2cn(-c3ccccn3)c(C)n2)n2ccccc12`, the IC50 was > 50 µM (inactive).
For `CCc1nnc(NC(=O)c2nnn(-c3ccccc3Cl)c2C)s1`, the IC50 was > 50 µM (inactive).
With `COc1ccc(NC(=O)C2CC(=O)Nc3cc(-c4ccccc4)nn32)cc1` (configuration not stated) the pIC50 was 4.58.
`Cc1ccccc1-c1noc(-c2ccccc2OCC(=O)NC(C)C)n1` was tested, and the IC50 was > 50 µM (inactive).
`O=C1N(Cc2ccc(F)cc2)CCN1c1ccc(C(F)(F)F)cn1` was tested, and the IC50 was > 50 µM (inactive).
In the case of `COc1c2nc3ccccc3oc-2cc(=O)c1OC`, the IC50 was > 50 µM (inactive).
`Cc1noc(-c2cc(=O)n(CC(=O)NCc3ccccc3F)c3ccccc23)n1` was tested, and the pIC50 was 4.60.
For `Cc1ccccc1NC(=O)c1ccc(N2CCCCC2)nn1`, the IC50 was > 50 µM (inactive).
`CCc1ccc2c(c1)[C@]1(C(=O)N2)[C@@H]2C(=O)N(c3ccc(Cl)cc3Cl)C(=O)[C@@H]2[C@@H]2CCCN21` was tested, and the IC50 was > 50 µM (inactive).
`CC1CCCN(S(=O)(=O)c2cc3cc(F)ccc3oc2=O)C1` (configuration not stated) was tested, and the IC50 was > 50 µM (inactive).
In the case of `O=c1cc(CNc2ccc(Br)cc2)nc2nc(-c3ccccc3)[nH]n12`, the IC50 was > 50 µM (inactive).
In the case of `O=C(COc1cccc2c1CCN(Cc1cccnc1)C2=O)Nc1ccc2c(c1)OCCO2`, the IC50 was > 50 µM (inactive).
With `CCOc1ccccc1C(=O)NCC(=O)OC(C(=O)c1c[nH]c2ccccc12)c1ccccc1` (configuration not stated) the IC50 was > 50 µM (inactive).
For `CCc1ccc2[nH]c(=O)c(CN(CCc3ccc(OC)c(OC)c3)C(=O)Nc3ccccc3)cc2c1`, the IC50 was > 50 µM (inactive).
For `Cc1noc(C)c1COc1cccc(C(=O)Nc2cc(Cl)ccc2-n2cncn2)c1`, the IC50 was > 50 µM (inactive).
For `O=C(Nc1cccc(-c2noc(C3CCC3)n2)c1)C1CC(=O)N(c2ccccc2)C1` (configuration not stated), the pIC50 was 4.43.
`O=S(=O)(c1ccc2c(c1)OCCO2)N(Cc1ccccc1)Cc1nnc(-c2ccccc2)o1` was tested, and the IC50 was > 50 µM (inactive).
`Cc1nn(-c2ccccc2)c(C)c1C(=O)OCC(=O)Nc1cccc(C#N)c1` was tested, and the IC50 was > 50 µM (inactive).
In the case of `O=S1(=O)NC(=NCCc2ccc(Cl)cc2Cl)c2ccccc21`, the IC50 was > 50 µM (inactive).
In the case of `O=C(Nc1nc2ccccc2s1)c1ccc2c(c1)C(=O)N(Cc1cccnc1)C2=O`, the pIC50 was 4.41.
In the case of `COc1cccc(-n2c(=O)[nH]c3c(C(N)=O)nc(-c4ccc(OCc5ccccc5)cc4)nc32)c1`, the IC50 was > 50 µM (inactive).
For `O=C(Nc1ccc(-c2nnc3n2CCCCC3)cc1)c1ccc2c(c1)OCO2`, the IC50 was > 50 µM (inactive).
`CC1CCCN1C(=O)c1ccn(-c2ccc3ccc(-c4cccnc4)cn23)n1` (configuration not stated) was tested, and the IC50 was > 50 µM (inactive).
`O=C1CC(c2cc3c(cc2Br)OCO3)c2cc3c(cc2N1)OCCO3` (configuration not stated) gave a pIC50 of 4.73.
With `NC(=O)CCC(=O)N[C@H]1C[C@H]2CN(Cc3ccccc3)c3ccccc3CN2C1` the IC50 was > 50 µM (inactive).
`O=C1C=C(O)c2c(O)cccc2C1=O` showed a pIC50 of 4.59.
For `CNC(=O)C1CN(C(=O)c2ccc(OC)cc2)CC12CCCC2` (configuration not stated), the IC50 was > 50 µM (inactive).
In the case of `O=C(Nc1cc(F)c2nc(N3CCOCC3)ccc2c1)C1CC1`, the IC50 was > 50 µM (inactive).
Compound `CCC1=C(c2ccc(C)cc2)S(=O)(=O)NC1=NCC(=O)NC(C)c1ccccc1` (configuration not stated) has a pIC50 of 4.69.
With `O=C(NCc1nc(-c2ccc3c(c2)[nH]c(=O)n3C2CCCC2)no1)c1ccccc1` the IC50 was > 50 µM (inactive).
For `Cc1nc(SCC#N)c2oc3ccccc3c2n1`, the IC50 was > 50 µM (inactive).
In the case of `COc1ccccc1NS(=O)(=O)c1cccc(NC(=O)CCc2nc3ccccc3s2)c1`, the IC50 was > 50 µM (inactive).
With `Cc1ccc(OCCn2c(=N)n(C(C)C)c3ccccc32)cc1` the IC50 was > 50 µM (inactive).
With `O=C(COc1ccc(Cl)cc1)N1CCc2cc3ccccc3nc21` the IC50 was > 50 µM (inactive).
`Cc1cc(Cl)ccc1NC(=O)c1cc(-c2cccnc2)n[nH]1` was tested, and the IC50 was > 50 µM (inactive).
With `Cc1ccc(CNC(=O)Cn2c(=O)n(-c3ccccc3)c3ncccc32)cc1` the IC50 was > 50 µM (inactive).
In the case of `COc1ccc(CC(=O)Nc2nc(-c3ccco3)c(-c3ccco3)s2)cc1`, the IC50 was > 50 µM (inactive).
In the case of `COc1cccc(N2CCN(C(=O)C3CCN(c4nc(NC(C)=O)ns4)CC3)CC2)c1`, the IC50 was > 50 µM (inactive).
In the case of `COc1cccc(NC(=O)Nc2ccc(CCc3nc4ccccc4[nH]3)cc2)c1`, the pIC50 was 4.31.
`CCOC(=O)Nc1ccc(N2CCn3c(nc4ccccc43)C2)cc1OC` was tested, and the IC50 was > 50 µM (inactive).
`CC(=O)Nc1ccc(NC(=O)c2cc(-c3cc(C)cc(C)c3O)n[nH]2)cc1` was tested, and the pIC50 was 4.66.
With `O=C(COc1cccc(-n2cnnn2)c1)Nc1ccc2c(c1)OCCO2` the IC50 was > 50 µM (inactive).
`CN1C(=O)c2cc(NC(=O)c3ccccc3Cl)ccc2Oc2ccccc21` was tested, and the IC50 was > 50 µM (inactive).
For `N#Cc1ccc(NC(=O)Nc2cccn(Cc3c(F)cccc3Cl)c2=O)cc1`, the IC50 was > 50 µM (inactive).
For `COc1ccc(-c2cc(N3CCC(NC(=O)c4ccccc4)C3)n[nH]2)cc1` (configuration not stated), the pIC50 was 4.73.
For `CN(C)C(=O)CSc1nnc(-c2cccc(Cl)c2)n1-c1ccc(Cl)c(C(F)(F)F)c1`, the IC50 was > 50 µM (inactive).
With `O=C(NCc1ccc(F)cc1)C1CCCN(c2cnc3nccnc3c2)C1` (configuration not stated) the IC50 was > 50 µM (inactive).
In the case of `COc1ccccc1-c1nc(-c2nnn(Cc3ccc(C)cc3)c2C)no1`, the IC50 was > 50 µM (inactive).
Work on `Cc1ccc(NC(=O)Cc2nnc3cc(-c4nc(C)no4)ccn23)cc1` yielded a pIC50 of 4.66.
In the case of `CN(C)S(=O)(=O)c1ccc(N2CCCC2)c(C(=O)Nc2ccc(-c3cn4ccsc4n3)cc2)c1`, the IC50 was > 50 µM (inactive).
For `Cc1nn(C)c2c1[C@@H](c1ccc(F)cc1)[C@H](NC(=O)c1ccccc1)C(=O)N2`, the IC50 was > 50 µM (inactive).
Work on `O=C(CN1CCCCC1)Nc1nnc(-c2ccc([N+](=O)[O-])cc2)s1` yielded a pIC50 of 4.72.
With `Cc1ccc(C(=O)Nc2ccc3c(c2)C(=O)N(C)c2ccccc2O3)cc1C` the IC50 was > 50 µM (inactive).
In the case of `O=C(c1cnccn1)N1CCc2[nH]c3ccc(F)cc3c2C1`, the IC50 was > 50 µM (inactive).
With `CC(=O)NCc1nc(-c2ccc3c(c2)nc(C)c(=O)n3C2CCCC2)no1` the IC50 was > 50 µM (inactive).
`Cc1cc(Nc2ccc(C(=O)NCc3ccco3)cc2)n2nc(-c3cccnc3)nc2n1` gave a pIC50 of 4.43.
`Cc1cc(Cl)ccc1Nc1nc(Nc2cccc(F)c2)nc2nccnc12` was tested, and the IC50 was > 50 µM (inactive).
For `COc1cccc(-c2nc(C(N)=O)c3[nH]c(=O)n(-c4cccc(Cl)c4)c3n2)c1OC`, the IC50 was > 50 µM (inactive).
`CCOc1ccc(NC(=O)COc2cccc3c2CCN(CC)C3=O)cc1` was tested, and the IC50 was > 50 µM (inactive).
With `Cc1cc(C)c2c(-n3cccc3)c(C(=O)NCCc3ccc(S(N)(=O)=O)cc3)sc2n1` the IC50 was > 50 µM (inactive).
`c1ccc(CN2CCN(c3nc4ccccc4n4nnnc34)CC2)cc1` was tested, and the IC50 was > 50 µM (inactive).
`COc1cc2c(cc1NC(=O)c1ccc(-n3cnnn3)cc1)oc1ccccc12` was tested, and the IC50 was > 50 µM (inactive).
`CCCCc1nc2sc3c(NCCN4CCOCC4)ncnc3c2c2c1CCC2` was tested, and the IC50 was > 50 µM (inactive).
For `O=S(=O)(c1ccc(F)cc1)N1CCCC1c1ccnc(Nc2cnccn2)n1` (configuration not stated), the IC50 was > 50 µM (inactive).
For `COc1ccc(Cl)cc1NC(=O)c1cc(-c2ccccn2)n[nH]1`, the pIC50 was 5.59.
Compound `Cc1cccc(COc2ccc(C3SCC(=O)Nc4n[nH]c(C)c43)cc2)c1` (configuration not stated) has a pIC50 of 4.81.
For `Nc1c(C(=O)c2cccs2)oc2nc(-c3ccccc3)cc(-c3ccco3)c12`, the IC50 was > 50 µM (inactive).
With `CN1CCN(C(=O)c2ccn(-c3ccc4ccc(-c5cnn(C)c5)cn34)n2)CC1` the IC50 was > 50 µM (inactive).
With `O=C(Cn1c(=O)n(Cc2ccccc2)c(=O)c2ncccc21)NCc1ccccc1Cl` the IC50 was > 50 µM (inactive).
`O=C(O)COc1ccccc1/C=C1\CCc2c1nc1ccccc1c2C(=O)O` was tested, and the IC50 was > 50 µM (inactive).
`Cc1ccc2c(c1)c(=O)c(C(=O)c1ccccc1)cn2CC(=O)Nc1ccccc1` gave a pIC50 of 4.50.
For `COc1ccc(C(=O)Nc2cc(F)c3nc(N4CCOCC4)ccc3c2)c(OC)c1`, the IC50 was > 50 µM (inactive).
`COc1ccc(S(=O)(=O)N(C)Cc2cccs2)cc1OC` was tested, and the IC50 was > 50 µM (inactive).
With `c1cnc(-c2n[nH]c(C3CCN(C4CCNC4)CC3)n2)cn1` (configuration not stated) the IC50 was > 50 µM (inactive).
`COc1ccc(/C=C/C(=O)Nc2cccc(S(=O)(=O)Nc3ccccc3Cl)c2)c(OC)c1` showed a pIC50 of 4.59.
With `CN1CC2CN(C(=O)Nc3cccnc3)CCN2Cc2ccccc21` (configuration not stated) the IC50 was > 50 µM (inactive).
`O=C(Nc1ccc(F)cc1F)c1csc(-c2ccccc2)n1` was tested, and the pIC50 was 4.46.
In the case of `COc1ccc(Cn2cnc3c([nH]c4ccc(Br)cc43)c2=O)cc1`, the IC50 was > 50 µM (inactive).
With `COc1cc2c(cc1OC)-c1cc(NCc3cc(OC)c(OC)c(OC)c3)nc(=O)n1CC2` the IC50 was > 50 µM (inactive).
With `N#Cc1cccc(NC(=O)Nc2cccn(Cc3ccccc3F)c2=O)c1` the IC50 was > 50 µM (inactive).
With `CC1Oc2ccccc2C(=O)N(Cc2ccc([N+](=O)[O-])cc2)C1=O` (configuration not stated) the IC50 was > 50 µM (inactive).
In the case of `CC(=O)Nc1ccc(S(=O)(=O)NCc2ccc(C(=O)NCCc3ccc(Cl)cc3)cc2)cc1`, the pIC50 was 4.93.
In the case of `O=C(Cc1cccs1)Nc1cc(F)c2nc(N3CCOCC3)ccc2c1`, the IC50 was > 50 µM (inactive).
